The source of these data is patent publication US6531508B1, “Antibacterial medicinal compositions” (priority 1999, dated 2003).

The test system of series [1] is bacterial strains from dental infectious diseases. The note with it: reported in the literature; increasingly resistant strains; cited from earlier work.
The test system of series [2] is Porphyromonas gingivalis. Conditions: reported in the literature; cited from earlier work.
Series [3] is described as follows: Gastrointestinal absorption of compound 1 after oral administration (plasma AUC). Conditions: rat; for AUC: male, Sprague-Dawley, compound 1 as free acid in plasma. The series is classed as in vivo, Sprague-Dawley rats. The method, then:
Seven-week old male Sprague-Dawley rats orally received 70.5 mg/kg (57.1 mg (potency)/kg) of compound 1 and 57.1 mg/kg of disodium ethylenediaminetetraacetate. Controls orally received 70.5 mg/kg of compound 1 alone. At 0.1-10 hours after administration, blood was collected. The concentration of compound 1 as free acid in plasma was determined by high-performance liquid chromatography. For determination, plasma was used after pretreatment. That is, 0.2 mL of plasma was stirred with 0.2 mL of acetonitrile and then centrifuged at 4° C., 12000 rpm for 15 min. Two hundreds μL of this supernatant was diluted in 800 μL of 10 mM phosphate buffer, and 200 μL of this dilution was applied on a high-performance liquid chromatography column. The chromatography conditions were as follows. A stainless steel high-performance liquid chromatographic column packed with octadecylsilyl silica gel was used. The column temperature was room temperature. The mobile phase consisted of a binder containing 680 mL of a 20 mM aqueous sodium dihydrogenphosphate solution adjusted at pH 2 with phosphoric acid and 320 mL of acetonitrile. The flow rate was controlled at 1 mL/min. For detection, a UV absorption spectrometer was used at a wavelength of 318 nm.

Series [4] deals with methicillin-sensitive Staphylococcus aureus (MSSA), Streptococcus pyrogenes and Streptococcus pneumoniae, penicillin-resistant pneumococci (PRSP), oral …. The note with it: reported in the literature; gram-positive bacteria incl. strains where conventional β-lactams are ineffective; cited from earlier work.

In the case of `C[C@@H](O)[C@H]1C(=O)N2C(C(=O)O)=C([C@H]3CCCO3)S[C@H]12` [compound 1, Sodium (+)-(5R,6S)-6-[(R)-1-hydroxyethyl]-7-oxo-3-[(R)-2-tetrahydrofuryl]-4-thia-1-azabicyclo[3.2.0]hept-2-ene-2-carboxylate 5/2 hydrate], the Antibacterial activity result in series [1], in series [2] and in series [4] was “potent antibacterial activity” in each case. In series [3] (group coadministered with disodium ethylenediaminetetraacetate compared with compound 1 alone), the “Change of AUC versus control group” value is recorded as “approximately doubled”. For the same compound, the exposure (AUC) in series [3] (70.5 mg/kg compound 1 with 57.1 mg/kg disodium ethylenediaminetetraacetate) came out at 24800 ± 9300 ng·h/mL; in series [3] (control group: 70.5 mg/kg compound 1 alone), 12600 ± 5700 ng·h/mL.
